Assay results: the supplement of paper PMC9663587

Assays:
Neratinib/HKI272 = compound: CCOc1cc2ncc(C#N)c(Nc3ccc(OCc4ccccn4)c(Cl)c3)c2cc1NC(=O)/C=C/CN(C)C [Neratinib/HKI272]; test: increase in dead-cell fraction, 72 h; higher = more death;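 note: breast cancer cell lines in 384-well plates, stained with Hoechst plus LIVE/DEAD far red dye and imaged, cells above an LDR intensity threshold counted dead, Hoechst-negative corpses included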
[1] = compound: CC(=O)c1c(C)c2cnc(Nc3ccc(N4CCNCC4)cn3)nc2n(C2CCCC2)c1=O; test: as above
[2] = compound: CCN1CCN(Cc2ccc(Nc3ncc(F)c(-c4cc(F)c5nc(C)n(C(C)C)c5c4)n3)nc2)CC1; test: as above
Flavopiridol = compound: CN1CC[C@H](c2c(O)cc(O)c3c(=O)cc(-c4ccccc4Cl)oc23)[C@H](O)C1 [Flavopiridol]; test: as above
LEE011/Ribociclib = compound: CN(C)C(=O)c1cc2cnc(Nc3ccc(N4CCNCC4)cn3)nc2n1C1CCCC1 [LEE011/Ribociclib]; test: as above
BSJ-03-123 = compound: CC(=O)c1c(C)c2cnc(Nc3ccc(N4CCN(CCOCCOCCOCCNC(=O)COc5cccc6c5C(=O)N(C5CCC(=O)NC5=O)C6=O)CC4)cn3)nc2n(C2CCCC2)c1=O [BSJ-03-123]; test: as above
[3] = compound: CCc1cnn2c(NCc3ccc[n+]([O-])c3)cc(N3CCCC[C@H]3CCO)nc12; test: as above
THZ1 = compound: CN(C)C/C=C/C(=O)Nc1ccc(C(=O)Nc2cccc(Nc3ncc(Cl)c(-c4c[nH]c5ccccc45)n3)c2)cc1 [THZ1]; test: as above
[4] = compound: CC(=O)Nc1cccc(-n2c(=O)n(C3CC3)c(=O)c3c(Nc4ccc(I)cc4F)n(C)c(=O)c(C)c32)c1
[5] = compound: CCC1=CN=CN=C1N2CCN(CC2)CC3=NC4=C(N3)C=C(C=C4)C(F)(F)F
BSJ-01-175 = compound: CN(C)C/C=C/C(=O)Nc1ccc(O[C@@H]2CCC[C@@H](Nc3ncc(Cl)c(-c4c[nH]c5ccccc45)n3)C2)cc1 [BSJ-01-175]
[6] = compound: CCN1CCN(Cc2ccc(Nc3ncc(F)c(-c4cc(F)c5nc(C)n(C(C)C)c5c4)n3)nc2)CC1
[7] = compound: COc1ccc2c(c1)[C@]1(C[C@H]1c1ccc3c(/C=C/c4ccc(CN5C[C@@H](C)O[C@@H](C)C5)cc4)n[nH]c3c1)C(=O)N2
AZD2014 = compound: CNC(=O)c1cccc(-c2ccc3c(N4CCOC[C@@H]4C)nc(N4CCOC[C@@H]4C)nc3n2)c1 [AZD2014]
AZD7762 = compound: NC(=O)Nc1cc(-c2cccc(F)c2)sc1C(=O)N[C@H]1CCCNC1 [AZD7762]
Ipatasertib/GDC0068 = compound: CC(C)NC[C@@H](C(=O)N1CCN(c2ncnc3c2[C@H](C)C[C@H]3O)CC1)c1ccc(Cl)cc1 [Ipatasertib/GDC0068]
Tivantinib/ARQ197 = compound: O=C1NC(=O)[C@@H](c2cn3c4c(cccc24)CCC3)[C@@H]1c1c[nH]c2ccccc12 [Tivantinib/ARQ197]
Vorinostat = compound: O=C(CCCCCCC(=O)Nc1ccccc1)NO [Vorinostat]
AZD6738 = compound: C[C@@H]1COCCN1c1cc(C2([S@](C)(=N)=O)CC2)nc(-c2cc[nH]c3nccc2-3)n1 [AZD6738]
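Throughout, for GR50, 72 h: breast cancer and non-malignant breast epithelial cell lines, Deep Dye Drop or Dye Drop imaging, nine half-log doses, GR normalized to time-zero plates and DMSO-only controls.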

SUM229PE was tested, and the “increase in dead-cell fraction” value (Neratinib/HKI272; 0.0003162 µM) was 0.0008, the “increase in dead-cell fraction” value (Neratinib/HKI272; 0.001 µM) was 0.0005 and the “increase in dead-cell fraction” value (Neratinib/HKI272; 0.003162 µM) was -0.0005. For the same cell line, the “increase in dead-cell fraction” value (Neratinib/HKI272; 0.01 µM) was 0.0001, the “increase in dead-cell fraction” value (Neratinib/HKI272; 0.03162 µM) was 0.0043 and the “increase in dead-cell fraction” value (Neratinib/HKI272; 0.1 µM) was 0.0062. The “increase in dead-cell fraction” value (Neratinib/HKI272; 0.3162 µM) was 0.0046, the “increase in dead-cell fraction” value (Neratinib/HKI272; 1 µM) was 0.0111 and the “increase in dead-cell fraction” value (Neratinib/HKI272; 3.162 µM) was 0.0132. The “increase in dead-cell fraction” value ([1]; 0.0003162 µM) was -0.0072, the “increase in dead-cell fraction” value ([1]; 0.001 µM) was 0.0057 and the “increase in dead-cell fraction” value ([1]; 0.003162 µM) was -0.0076. The “increase in dead-cell fraction” value ([1]; 0.01 µM) was -0.0059, the “increase in dead-cell fraction” value ([1]; 0.03162 µM) was -0.0018 and the “increase in dead-cell fraction” value ([1]; 0.1 µM) was -0.0045. The “increase in dead-cell fraction” value ([1]; 0.3162 µM) was -0.0032, the “increase in dead-cell fraction” value ([1]; 1 µM) was -0.0082 and the “increase in dead-cell fraction” value ([1]; 3.162 µM) was 0.009. For the same cell line, the “increase in dead-cell fraction” value ([2]; 0.001 µM) was -0.0006, the “increase in dead-cell fraction” value ([2]; 0.003162 µM) was 0.004 and the “increase in dead-cell fraction” value ([2]; 0.01 µM) was -0.0023. For the same cell line, the “increase in dead-cell fraction” value ([2]; 0.03162 µM) was -0.0024, the “increase in dead-cell fraction” value ([2]; 0.1 µM) was 0.0008 and the “increase in dead-cell fraction” value ([2]; 0.3162 µM) was -0.006. The “increase in dead-cell fraction” value ([2]; 1 µM) was 0.0054, the “increase in dead-cell fraction” value ([2]; 3.162 µM) was 0.0064 and the “increase in dead-cell fraction” value ([2]; 10 µM) was 0.0095. The “increase in dead-cell fraction” value (Flavopiridol; 0.0001 µM) was -0.0011, the “increase in dead-cell fraction” value (Flavopiridol; 0.0003162 µM) was -0.0025 and the “increase in dead-cell fraction” value (Flavopiridol; 0.001 µM) was 0.0061. For the same cell line, the “increase in dead-cell fraction” value (Flavopiridol; 0.003162 µM) was 0.0065, the “increase in dead-cell fraction” value (Flavopiridol; 0.01 µM) was -0.0032 and the “increase in dead-cell fraction” value (Flavopiridol; 0.03162 µM) was -0.003. The “increase in dead-cell fraction” value (Flavopiridol; 0.1 µM) was 0.0189, the “increase in dead-cell fraction” value (Flavopiridol; 0.3162 µM) was 0.0897 and the “increase in dead-cell fraction” value (Flavopiridol; 1 µM) was 0.0752. The “increase in dead-cell fraction” value (LEE011/Ribociclib; 0.001 µM) was 0.0025, the “increase in dead-cell fraction” value (LEE011/Ribociclib; 0.003162 µM) was -0.003 and the “increase in dead-cell fraction” value (LEE011/Ribociclib; 0.01 µM) was 0.0012. For the same cell line, the “increase in dead-cell fraction” value (LEE011/Ribociclib; 0.03162 µM) was 0.0068, the “increase in dead-cell fraction” value (LEE011/Ribociclib; 0.1 µM) was 0.0061 and the “increase in dead-cell fraction” value (LEE011/Ribociclib; 0.3162 µM) was 0.0005. The “increase in dead-cell fraction” value (LEE011/Ribociclib; 1 µM) was 0.0021, the “increase in dead-cell fraction” value (LEE011/Ribociclib; 3.162 µM) was 0.0223 and the “increase in dead-cell fraction” value (LEE011/Ribociclib; 10 µM) was 0.0109. For the same cell line, the “increase in dead-cell fraction” value (BSJ-03-123; 0.001 µM) was 0.0053, the “increase in dead-cell fraction” value (BSJ-03-123; 0.003162 µM) was 0.0041 and the “increase in dead-cell fraction” value (BSJ-03-123; 0.01 µM) was -0.0026. The “increase in dead-cell fraction” value (BSJ-03-123; 0.03162 µM) was -0.0037, the “increase in dead-cell fraction” value (BSJ-03-123; 0.1 µM) was 0.0091 and the “increase in dead-cell fraction” value (BSJ-03-123; 0.3162 µM) was 0.0164. The “increase in dead-cell fraction” value (BSJ-03-123; 1 µM) was 0.007, the “increase in dead-cell fraction” value (BSJ-03-123; 3.162 µM) was 0.0152 and the “increase in dead-cell fraction” value (BSJ-03-123; 10 µM) was 0.0241. The “increase in dead-cell fraction” value ([3]; 0.0001 µM) was -0.0001, the “increase in dead-cell fraction” value ([3]; 0.0003162 µM) was -0.0086 and the “increase in dead-cell fraction” value ([3]; 0.001 µM) was 0.0057. The “increase in dead-cell fraction” value ([3]; 0.003162 µM) was -0.0015, the “increase in dead-cell fraction” value ([3]; 0.01 µM) was 0.0106 and the “increase in dead-cell fraction” value ([3]; 0.03162 µM) was 0.0583. For the same cell line, the “increase in dead-cell fraction” value ([3]; 0.1 µM) was 0.0925, the “increase in dead-cell fraction” value ([3]; 0.3162 µM) was 0.0682 and the “increase in dead-cell fraction” value ([3]; 1 µM) was 0.0926. For the same cell line, the “increase in dead-cell fraction” value (THZ1; 0.0001 µM) was 0.0012, the “increase in dead-cell fraction” value (THZ1; 0.0003162 µM) was 0.0126 and the “increase in dead-cell fraction” value (THZ1; 0.001 µM) was 0.0025. For the same cell line, the “increase in dead-cell fraction” value (THZ1; 0.003162 µM) was 0.0048, the “increase in dead-cell fraction” value (THZ1; 0.01 µM) was 0.0291 and the “increase in dead-cell fraction” value (THZ1; 0.03162 µM) was 0.0152. For the same cell line, the “increase in dead-cell fraction” value (THZ1; 0.1 µM) was 0.0835, the “increase in dead-cell fraction” value (THZ1; 0.3162 µM) was 0.124 and the “increase in dead-cell fraction” value (THZ1; 1 µM) was 0.127. The “GR50, 72 h” value [4] was 0.00774 µM, the “GR50, 72 h” value [5] was greater than 10 µM and the “GR50, 72 h” value (BSJ-01-175) was 0.0424 µM. The “GR50, 72 h” value [6] was 0.531 µM, the “GR50, 72 h” value [7] was 0.00229 µM and the “GR50, 72 h” value (AZD2014) was 0.0116 µM. The “GR50, 72 h” value (AZD7762) was 0.0909 µM, the “GR50, 72 h” value (Ipatasertib/GDC0068) was greater than 10 µM and the “GR50, 72 h” value (Tivantinib/ARQ197) was 0.083 µM. The “GR50, 72 h” value (Vorinostat) was 3.48 µM and the “GR50, 72 h” value (AZD6738) was 3.34 µM.
